Data published in patent US12156850B2, “Preservative removal from eye drops containing hydrophilic drugs” (University of Florida Research Foundation, Inc., priority 2017, dated 2024).

Tests used:
[1] = Experimental: The partition coefficients of hydrophilic drugs and BAK in p-HEMA, p-HEMA/t-butyl methacrylate, and p-HEMA/TRIS/t-butyl methacrylate particles were obtained by drug uptake studies. The mass of drug or BAK partitioned into p-HEMA hydrogel matrix was determined by monitoring the amount of drug or BAK lost in the concentrated aqueous drug/PBS or BAK/PBS loading solutions. The amount of drug loss from the concentrated aqueous phase was quantified by time-dependent absorbance measurements using UV-Vis spectrophotometry in a broad spectral range. […]
Time-dependent equilibrium interfacial tension measured via pendant drop tensiometry can be used to quantify the amount of BAK loss from the concentrated aqueous phase. […]
The partition coefficient of BAK in p-HEMA and p-HEMA/Tert-butyl methacrylate particle matrices were obtained by uptake studies. […] The mass of BAK partitioned in the p-HEMA and p-HEMA/TBM particle matrix was determined by monitoring the amount of BAK lost in the concentrated aqueous BAK/PBS loading solutions. The amount of BAK lost from the concentrated aqueous phase was quantified by time-dependent absorbance measurements using UV-Vis spectrophotometry (Genesys™ 10 UV, Thermo Spectronic, Rochester, NY, USA) over a wavelength range of 190-500 nm. […]

[2] = Equilibrium interfacial tension calibration of BAK solutions, Langmuir adsorption isotherm fit; format: physicochemical; settings: Langmuir fit of b275
Experimental: The dynamic interfacial tension of filtered ophthalmic formulations was measured via pendant drop tensiometry using the commercially automated instrument named Kruss DSA 100 (Drop Shape Analyzer). A pendant drop is a drop of the filtered formulation was suspended at the tip of a 14-gauge needle with air as the surrounding phase. The silhouette of the axisymmetric formulation drop is imaged at regular time intervals and iteratively fit to Young-Laplace equation to measure its dynamic surface tension as a function of time. This robust method is commonly employed due to a high-speed and precise estimation of interfacial tension based on drop curvature and concentration of the formulation. […]
[formula] where Γeq is the equilibrium molar surface concentration, Γ∞ is the maximum molar surface concentration, C is the bulk concentration of the aqueous formulation, α and β are adsorption and desorption constants, R is the ideal gas constant, γO is the interfacial tension of the pure solvent (PBS), γ is the equilibrium interfacial tension recorded after 12 minutes of interfacial surface generation, and T is the operating temperature for acquisition of interfacial tension of drug/BAK formulation (recorded at room temperature, 298 K). […]

Row | Substance | partition coefficient for BAK [1] | Γ∞ (maximum surface coverage) [2] [mol/m^2] | β/α (ratio of kinetic rate constants) [2] [m^3/mol]
1 | poly(hydroxyethyl methacrylate) [p-HEMA] | 100-500 | – | –
2 | Benzalkonium chloride [BAK] | – | 0.003309 | 462.14
